This note sets out measurements from ChEMBL document CHEMBL1201862, “PubChem BioAssay data set” (2004).

The term GI50 denotes the concentration that inhibits growth by half.

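How tested: cells in 96-well plates exposed to compound for 48 hours at five concentrations. Here, GI50 denotes the concentration required for 50% inhibition of growth.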 Activity calls are given as the source filed them. Rule as the data show it: active = GI50 up to about 1.1 µM and inactive = higher.

Test systems include 786-0; A549; DU-145; EKVX; HOP-62; Hs-578T; K562; KM12; M14; MDA-MB-231; MDA-N; MOLT-4; NCI-H522; PC-3; RPMI-8226; SF-295; SF-539; SNB-19; UACC-257; UACC-62.
Holding throughout (experiment): DTP human tumour cell line panel, 48 h

For `CC1=CC2=C(C(N)=O)C(=O)OC2(C)C(c2ccccc2)C1` (stereo not given), the GI50 in the assay on 786-0, in the assay with A549, in the assay with DU-145, with EKVX, in the assay on HOP-62 and in the assay on Hs-578T was > 100 µM (inactive) in each case. Also, the GI50 in the assay with K562, with KM12, in the assay on M14, in the assay with MDA-MB-231, with MDA-N and with MOLT-4 was > 100 µM (inactive) each time. For the same molecule, the GI50 in the assay on NCI-H522, in the assay with PC-3, in the assay with RPMI-8226, in the assay with SF-295, with SF-539 and in the assay on SNB-19 was > 100 µM (inactive) throughout. The GI50 in the assay with UACC-257 and with UACC-62 was > 100 µM (inactive) in each case.
As for `O=C(NC(Nc1ccc(F)c(Cl)c1)(C(F)(F)F)C(F)(F)F)OCc1ccccc1`, the GI50 was 18.3 µM (inactive) in the assay on 786-0; 43 µM (inactive) with A549; 24.4 µM (inactive) with DU-145; 26.4 µM (inactive) in the assay with EKVX; 30.3 µM (inactive) in the assay on HOP-62; 51.2 µM (inactive) in the assay with Hs-578T. The GI50 is 10.8 µM (inactive) in the assay with K562; 36.3 µM (inactive) in the assay with KM12; 37 µM (inactive) in the assay on M14; 11.7 µM (inactive) in the assay on MDA-MB-231; 19.7 µM (inactive) with MDA-N; 26.4 µM (inactive) in the assay on MOLT-4. For the same molecule, the GI50 is 22.7 µM (inactive) in the assay with NCI-H522; 17.4 µM (inactive) in the assay on PC-3; 20.4 µM (inactive) with RPMI-8226; 28.2 µM (inactive) in the assay with SF-295; 17.6 µM (inactive) in the assay with SF-539; 20.9 µM (inactive) in the assay on SNB-19. Also, the GI50 in the assay on UACC-257 was > 100 µM (inactive); in the assay on UACC-62, 17.7 µM (inactive).
`CC1(C)C(=O)N=C(N)N1C(=O)OCc1ccccc1`: the GI50 with 786-0, in the assay on A549, with DU-145, in the assay with EKVX, in the assay with HOP-62 and in the assay with Hs-578T was > 100 µM (inactive) throughout. Also, the GI50 in the assay on K562, with KM12, in the assay on M14, in the assay on MDA-MB-231, in the assay with MDA-N and in the assay with MOLT-4 was > 100 µM (inactive) in each case. Moreover, the GI50 in the assay with NCI-H522, in the assay on PC-3, in the assay with RPMI-8226, in the assay with SF-295, with SF-539 and with SNB-19 was > 100 µM (inactive) in each case. For the same molecule, the GI50 with UACC-257 and with UACC-62 was > 100 µM (inactive) each time.
In the case of `C=CCC(C(=O)O)c1ccccc1` (stereo not given), the GI50 in the assay with 786-0, in the assay with A549, in the assay with DU-145, in the assay with EKVX, in the assay with HOP-62 and in the assay with Hs-578T was > 100 µM (inactive) in each case. For the same molecule, the GI50 in the assay with K562, with KM12, in the assay on M14, with MDA-MB-231, in the assay with MDA-N and with MOLT-4 was > 100 µM (inactive) throughout. In addition, the GI50 in the assay on NCI-H522, in the assay on PC-3, with RPMI-8226, with SF-295, in the assay with SF-539 and in the assay with SNB-19 was > 100 µM (inactive) throughout. In addition, the GI50 with UACC-257 and with UACC-62 was > 100 µM (inactive) each time.
On to `CCOC(=O)C1=COC(C)(CCc2ccccc2)CC1=O` (stereo not given), for which the GI50 in the assay with 786-0 was > 100 µM (inactive); in the assay on A549, 40.9 µM (inactive); with DU-145, > 100 µM (inactive); with EKVX it was > 100 µM (inactive); in the assay with HOP-62, > 100 µM (inactive); with Hs-578T, 45 µM (inactive). The GI50 in the assay on K562 was 40.3 µM (inactive); in the assay with KM12, 56.2 µM (inactive); in the assay with M14, > 100 µM (inactive); in the assay on MDA-MB-231, 82.6 µM (inactive); in the assay with MDA-N, 87.7 µM (inactive); in the assay with MOLT-4, 43.2 µM (inactive). Further, the GI50 in the assay with NCI-H522 was 24.7 µM (inactive); in the assay on PC-3, 89.1 µM (inactive); with RPMI-8226, 41.9 µM (inactive); in the assay with SF-295, > 100 µM (inactive); in the assay on SF-539, 66.5 µM (inactive); in the assay with SNB-19, 56.2 µM (inactive). Besides, the figures for the GI50 in the assay on UACC-257 and with UACC-62 were > 100 µM (inactive) and 55.7 µM (inactive), respectively.
As to `CCc1nc(N)nc(N)c1-c1ccc(N2CCOCC2)c(N=[N+]=[N-])c1`, the GI50 is 57.3 µM (inactive) in the assay on 786-0; 21.2 µM (inactive) in the assay with A549; > 82.8 µM (inactive) with DU-145; 66.7 µM (inactive) in the assay on EKVX; > 100 µM (inactive) with HOP-62; > 100 µM (inactive) in the assay with Hs-578T. Besides, the GI50 was 8.79 µM (inactive) in the assay on K562; 70.5 µM (inactive) in the assay with KM12; 54.3 µM (inactive) in the assay on M14; > 100 µM (inactive) in the assay on MDA-MB-231; 57.1 µM (inactive) in the assay with MDA-N; 64.3 µM (inactive) in the assay with MOLT-4. The GI50 in the assay with NCI-H522 was 20.9 µM (inactive); in the assay on PC-3, 42.6 µM (inactive); in the assay on RPMI-8226, > 89.5 µM (inactive); in the assay with SF-295 it was 63 µM (inactive); in the assay on SF-539 it was 75.5 µM (inactive); with SNB-19 it was 38.3 µM (inactive). Further, the GI50 was > 100 µM (inactive) with UACC-257 and 47 µM (inactive) in the assay on UACC-62.
On to `O=C1/C(=C\c2ccccc2)C(NC2CCCCC2)c2ccccc21` (stereo not given), for which the 50% growth inhibitory concentration (GI50) is 0.828 µM (active) in the assay on 786-0; 4.05 µM (inactive) in the assay on A549; 1.53 µM (inactive) with DU-145; 3.3 µM (inactive) in the assay with EKVX; 2.46 µM (inactive) in the assay on HOP-62; 3.18 µM (inactive) in the assay with Hs-578T. Moreover, the concentration for 50% growth inhibition (GI50) in the assay on K562 is 0.46 µM (active); with KM12 it was 4.44 µM (inactive); in the assay on M14, 1.54 µM (inactive); with MDA-MB-231, 2.23 µM (inactive); in the assay with MDA-N, 1.43 µM (inactive); in the assay on MOLT-4 it was 0.817 µM (active). In addition, the GI50 in the assay with NCI-H522 is 0.578 µM (active); in the assay with PC-3, 1.78 µM (inactive); in the assay on RPMI-8226, 0.387 µM (active); with SF-295, 18.8 µM (inactive); in the assay on SF-539, 1 µM (active); with SNB-19, 10.5 µM (inactive). Besides, the GI50 in the assay on UACC-257 is 1.29 µM (inactive); in the assay on UACC-62, 2.38 µM (inactive).
Consider `CN1CCN(CCCCNc2cc3c4ccccc4c(NCCCCN4CCN(C)CC4)cc3c3ccccc23)CC1`, for which the GI50 in the assay on 786-0 was 1.63 µM (inactive); in the assay on A549, 1.37 µM (inactive); in the assay with DU-145 it was 1.67 µM (inactive); in the assay on EKVX, 7.43 µM (inactive); in the assay on HOP-62, 3.59 µM (inactive); with Hs-578T it was 2.38 µM (inactive). Moreover, the GI50 was 1.57 µM (inactive) with K562; 1.55 µM (inactive) with KM12; 0.895 µM (active) in the assay on M14; 1.62 µM (inactive) with MDA-MB-231; 0.317 µM (active) in the assay on MDA-N; 0.41 µM (active) in the assay with MOLT-4. Also, the GI50 is 1.93 µM (inactive) in the assay with NCI-H522; 3.31 µM (inactive) in the assay with PC-3; 1.38 µM (inactive) in the assay on RPMI-8226; 1.78 µM (inactive) in the assay on SF-295; 1.94 µM (inactive) with SF-539; 4.49 µM (inactive) in the assay on SNB-19. For the same molecule, the values for the GI50 in the assay on UACC-257 and with UACC-62 were 4.79 µM (inactive) and 2.28 µM (inactive), respectively.
With `CCCC(=O)OC(OC(=O)CCC)c1ccc([N+](=O)[O-])o1`, the GI50 in the assay on 786-0 is 18.3 µM (inactive); in the assay on A549, > 100 µM (inactive); in the assay with DU-145 it was 36.7 µM (inactive); in the assay with EKVX, 26.1 µM (inactive); with HOP-62, 62.8 µM (inactive); in the assay with Hs-578T, 35.5 µM (inactive). The GI50 in the assay on K562 was 34 µM (inactive); in the assay on KM12 it was 37.6 µM (inactive); in the assay on M14 it was 19.8 µM (inactive); with MDA-MB-231, 27.5 µM (inactive); with MDA-N it was 20.1 µM (inactive); in the assay with MOLT-4, 31.1 µM (inactive). Also, the GI50 with NCI-H522 is 13.4 µM (inactive); in the assay on PC-3, 61.7 µM (inactive); with RPMI-8226 it was 22.6 µM (inactive); in the assay on SF-295, > 100 µM (inactive); in the assay on SF-539, 35.7 µM (inactive); in the assay with SNB-19, > 100 µM (inactive). For the same molecule, the GI50 in the assay with UACC-257 was 21.4 µM (inactive); in the assay with UACC-62 it was 20.9 µM (inactive).
With `CCCCCCCCCCCCc1ccsc1-c1ccc(-c2ccc(-c3sccc3CCCCCCCCCCCC)s2)s1`, the GI50 with 786-0, in the assay with A549, with DU-145, in the assay on EKVX, in the assay on HOP-62 and in the assay on Hs-578T was > 100 µM (inactive) in each case. The GI50 with K562, in the assay with KM12, in the assay on M14, in the assay on MDA-MB-231, in the assay with MDA-N and in the assay on MOLT-4 was > 100 µM (inactive) throughout. Besides, the GI50 with NCI-H522, with PC-3, in the assay with RPMI-8226, in the assay on SF-295, in the assay on SF-539 and with SNB-19 was > 100 µM (inactive) each time. Moreover, the GI50 with UACC-257 and in the assay with UACC-62 was > 100 µM (inactive) each time.
